Laboratory results as given in US20230257373A1, “QUORUM SENSING INHIBITORS AND METHODS OF USE” (priority 2020, published 2023).

How the values were obtained:
[1] = target: LuxR (Vibrio harveyi, UniProt P21308); experiment: E. coli bioassay expressing LuxR (IPTG-inducible plasmid); format: cell-based, V. campbellii; parameters: expressed in transfected cells; host or cells: E. coli DH10B with pMMB67EH-kanR derivative and pJV064; conditions: 25 μM PTSP
Source text: We hypothesized that there were several possible reasons for the observed difference in PTSP inhibition in the various Vibrio species, including but not limited to: 1) differences in LuxR-inhibitor interaction(s), 2) differences in diffusion of the inhibitor across the membranes, or 3) stability of the inhibitor in the cell and/or cell culture. To examine PTSP activity in a common strain background, we cloned the luxR gene from each Vibrio species into a plasmid under control of an IPTG-inducible promoter and assayed the effect of PTSP against these proteins in the E. coli bioassay. […] We conclude that the differences in PTSP activity in Vibrio species is due to differences in interaction between PTSP and the LuxR-type protein in each Vibrio.
In E. coli assays expressing the five different LuxR-type proteins (luxR, smcR, opaR, vcpR, hapR), slight changes to the protocol were implemented. The luxR genes were cloned under control of the IPTG-inducible Ptac promoter in plasmid pMMB67EH-kanR. […] Strains expressing hapR or smcR required 50 μM IPTG to observe activation of the GFP reporter; IPTG was not added to strains expressing luxR, vcpR, or opaR.

[2] = test system: V. coralliilyticus protease activity; experiment: Protease assay (azocasein) in V. coralliilyticus; conditions: 2.5 μM PTSP vs DMSO
[3] = target: SmcR (Vibrio vulnificus, UniProt Q9L8G8); experiment: EMSA DNA binding activity of SmcR; format: biochemical, V. vulnificus; conditions: saturating concentrations
Description: We noted that Qstatin and PTSP are both predicted to bind in the putative ligand binding pocket of SmcR. It is currently unknown how Qstatin allosterically affects DNA binding through its interactions in the ligand binding domain. […] We therefore also assessed the effect of sulfonamide PTSP on the DNA binding activity of LuxR and SmcR in vitro. […] (Kim et al., 2018).
SmcR and LuxR were purified as described previously. EMSAs were conducted as described previously using oligonucleotides corresponding to the luxC and vvpE promoter sequences. ITC analysis was conducted using purified LuxR or His-tagged SmcR, each in gel-filtration buffer (25 mM Tris pH 7.5, 300 mM NaCl, 0.5 mM EDTA, 1 mM DTT, 2% DMSO). All molecules analyzed were diluted in the same buffer. The samples were degassed for 10 min by vacuum aspiration. Titrations were performed on a Nano-ITC (TA Instruments). […] Thermograms were analyzed using NanoAnalyze software with the independent binding model.

LuxR, sequence (P21308 whole entry, the tested form may be a part): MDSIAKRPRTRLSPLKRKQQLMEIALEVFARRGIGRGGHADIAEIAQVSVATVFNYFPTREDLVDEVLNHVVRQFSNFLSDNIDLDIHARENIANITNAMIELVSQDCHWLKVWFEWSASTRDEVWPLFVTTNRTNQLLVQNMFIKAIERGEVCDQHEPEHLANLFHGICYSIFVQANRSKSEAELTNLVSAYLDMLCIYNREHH
SmcR, sequence (Q9L8G8 entry or part of it): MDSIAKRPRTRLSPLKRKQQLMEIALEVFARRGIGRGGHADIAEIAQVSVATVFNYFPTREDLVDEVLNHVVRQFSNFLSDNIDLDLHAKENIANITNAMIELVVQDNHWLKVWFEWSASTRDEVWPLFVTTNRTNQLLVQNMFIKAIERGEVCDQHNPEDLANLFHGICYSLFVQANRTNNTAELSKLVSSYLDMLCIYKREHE

O=S(=O)(c1cccs1)n1ccc(-c2ccccc2)n1 [Compound 10B]
Inhibition of LuxR in E. coli bioassay [1]: inhibited
Protease activity of wild-type strain [2]: significantly reduced protease activity
DNA binding to SmcR [3]: did not alter DNA binding
